The text below walks through data of US20100197752A1, “UROCANIC ACID DERIVATIVES USEFUL FOR THE TREATMENT OF IMMUNE-RELATED AND INFLAMMATORY DISEASES” (priority 2007, published 2010).

In one assay the test system is BALB/c mice. As to the kind of experiment: Suppression of prolonged contact hypersensitivity (P-CHS), oxazolone-induced ear swelling. It is filed as in vivo. Particulars: for sequence from high to low effectiveness, suppressive effect on P-CHS response (ear swelling): BALB/c mice, oxazolone, topical twice daily, averaged from 2-3 experiments, compared to placebo (100% ear swelling), FIG. 3; for immunosuppressive, e.g. anti-inflammatory properties (efficacy): conclusion from P-CHS in BALB/c mice, topical application. On the procedure: Suppression of prolonged contact hypersensitivity (P-CHS) by ethyl imidazole-4-acetate in BALB/c mice.
Ethyl imidazole-4-acetate was dissolved in ethanol/water 1:1 in a concentration of 5%. The topical application of ethanol/water 1:1 alone served as full-response control. Ethanol/water test solutions were topically applied with a pipette in aliquots of 20 μL/ear.
Mice were sensitized with 10 μl 1% oxazolone in acetone on […] in all experiments on the outside of both ears. On day 0 mice were challenged with 10 μl 0.5% oxazolone in acetone on both ears. Repeated elicitations were applied on day 2, 4, 7, 9. Applied oxazolone concentrations in acetone were 0.5%, 0.25%, 0.25%, 0.25%, respectively. From day 1 up to one day before the final day of the experiment, twice-daily doses of test solutions were topically given at approximately 11 AM and […]. Duplicate ear thickness measurements were made on day 0, 1, 3, 5, 8, 10 and 11 prior to any daily topical application.
The use of mice was allowed by the Committee of Experimental Animal handling of the Academic Medical Center Amsterdam. Female BALB/c mice (8-10 weeks of age) were purchased from Charles River (L′Arbresle, France) and kept in light, humidity and temperature-controlled rooms in the animal facility, 1-2 weeks before the experiment. They were fed ad libitum with water and CRM-E food van Special Diets services (SDS, Witham, Essex, UK).
Data points, obtained with test compound administration, were compared to the data, obtained with vehicle (ethanol/water 1:1) administration and were statistically processed using Welch's unpaired t-test.

Assay [1] relates to IL-10 production in whole blood. Put plainly: Effect of imidazole-derivates on the production of IL-10 in whole blood following LPS stimulation. It counts as cell-based. Particulars: LPS stimulation (10 ng/ml), FIG. 4; for IL-10 production: 10−^4 Mol/l in whole blood. The text has this: Effect of imidazole-derivates on the production of IL-10
IL-10 is a cytokine that dims inflammatory immune responses. […] These findings in vitro have larger significance in a complete test system as whole blood, employed here, than in a monoculture test system (FIG. 4).
FIG. 4. Effect of imidazole-derivates on the production of IL-10 in whole blood

For a further assay, the system named is mice. Conditions: Kammeyer et al. 2004, Norval et al. 1995, Noonan and De Fabo 1992; cited from earlier work.

For the compound `O=C([O-])c1c[nH]cn1.[Na+]` [imidazole-4-carboxylic acid, imidazole-4-carboxylic acid, sodium salt], the “sequence from high to low effectiveness, suppressive effect on P-CHS response (ear swelling)” value (shortened to “sequence … on P-CHS response (ear swelling)”) in the assay with BALB/c mice is recorded as “imidazole-4-acetic acid (ImAc)=imidazole-4-carboxylic acid”.
For the compound `NCCc1c[nH]cn1` [Histamine], in assay [1] (whole blood), the “IL-10 production, positive control compared with the imidazole-derivates” value is given as “stronger effect on IL-10 production than the imidazole-derivates”.
For the compound `CCOC(=O)Cc1c[nH]cn1` [Et-ImAc, ethyl imidazole-4-acetate], in the assay with BALB/c mice, the “sequence … on P-CHS response (ear swelling)” value is on record as “prednisolone>ethyl imidazole-4-acetate (Et-ImAc)>imidazole-4-acetic acid (ImAc)” and the “immunosuppressive, e.g. anti-inflammatory properties (efficacy)” value (“immunosuppressive … (efficacy)” for short) is “stronger than that of ImAc”. For the same compound, the IL-10 production result in assay [1] is reported as “upregulation of IL-10”.
Regarding `C[C@]12C=CC(=O)C=C1CC[C@@H]1[C@@H]2[C@@H](O)C[C@@]2(C)[C@H]1CC[C@]2(O)C(=O)CO` [prednisolone], in the assay with BALB/c mice, the “sequence … on P-CHS response (ear swelling)” value was “prednisolone>ethyl imidazole-4-acetate (Et-ImAc)” and the “immunosuppressive … (efficacy)” value is on record as “classical strong suppressant”.
`O=C(O)Cc1c[nH]cn1` [ImAc, Imidazole-4-acetic acid]: in the assay on BALB/c mice, the “sequence … on P-CHS response (ear swelling)” value is given as “ethyl imidazole-4-acetate (Et-ImAc)>imidazole-4-acetic acid (ImAc)=imidazole-4-carboxylic acid” and the “immunosuppressive … (efficacy)” value is recorded as “weak to moderate immunosuppressant”. Further, the IL-10 production entry in assay [1] is reported as “upregulation of IL-10”. Also, the “contact hypersensitivity (CHS) response” value in the assay on mice is on record as “suppress the contact hypersensitivity (CHS) response in mice”.
`O=C(O)c1c[nH]cn1` [ImCOOH, imidazole-4-carboxylic acid]: the IL-10 production entry in assay [1] is listed as “upregulation of IL-10”.
